Measurements taken from patent publication US20050058745A1, “Use of Labiatae herb preparations for extending the flavor shelf life of malt beverages” (priority 2003, published 2005).

Tests used:
[1] = DCIP redox potential of mash (first wort); type: physicochemical; conditions: for Redox: 20 ppm in mash (20 mg/kg of mash), first wort
Procedure: A 300 g sample of 2-row Pale Barley Malt obtained from a local brewery was ground to a “brewery grind” with a hand grinder. Fifty-gram samples of the ground malt were weighed into each of three 600 mL beakers. Tap water was boiled for 5 min to remove the chlorine and sanitize the water. When cooled, the pH of the water was adjusted from 7.86 to 5.5 with 0.1 N H2SO4. The water was then heated to 43° C. (109.4° F.) and 160 g of this adjusted water was added to each beaker. To one of the beakers was added 210 μL of a 2% solution of carnosic acid in ethanol (giving 20 mg CA/kg of mash). To another beaker was added 210 μL of a 2% solution of rosmarinic acid. One beaker received no treatment. The beakers were stirred for 10 min at 43° C. on a temperature probe controlled hot plate, with the probe in one of the beakers. After the 10 min period the beakers were placed on another temperature probe controlled hot plate set at 68° C. (154.4° F.), and the probe put in one of the mash beakers. The come up time was approximately 15 min from 43° C. to 68° C. The beakers were stirred at this temperature for 15 min. After the 15-minute mash, the beakers were removed from the hot plate and cooled in an ice bath. Each beaker's contents were strained through a paper filter. Approximately 75 mL of first wort was collected from each mash. The grain was not sparged. The °Balling of the worts was measured with a temperature-compensated refractometer (Abbe, Leica Mark II).

[2] = DPPH radical scavenging of highly hopped beer during aging at 40° C.; type: physicochemical; conditions: for effect on DPPH numbers: beers not treated with air; for effect on DPPH number: beers treated with air
Procedure: The bottle dosing methods used were the same as those described in Example 1. The following samples were made: • 1. 20 ppm Carnosic Acid • 2. 20 ppm Carnosic Acid plus Air • 3. 20 ppm Rosmarinic Acid • 4. 20 ppm Rosmarinic Acid plus Air • 5. 10 ppm Carnosic Acid+10 ppm Rosmarinic Acid • 6. 10 ppm Carnosic Acid+10 ppm Rosmarinic Acid+Air • 7. […] No Additions. Treatments 1 through 8 were put in a temperature regulated room set at 40° C. and maintained at ±1° C. At intervals of Zero time, 3 days, 7 days, 14 days, and 21 days, samples were withdrawn and Redox Potentials were measured by the method outlined in example 4. Color measurements were made using the L, a, b system on a Minolta Spectrophotometer model […], chroma and hue angle color measure units were recorded. DPPH radical scavenging numbers were measured using the following method. A de-ionized-H2O/EtOH buffer solution was prepared by dissolving 250 mg sodium citrate dihydrate and 10 g of absolute ethanol in 250 mL of deionized water. The solution was then titrated with 0.1 N Citric acid (6.404 g/L anhydrous citric acid) a drop at a time to reach a pH of between 4.35 and 4.5. To perform the test, about 0.04 g of DPPH was weighed to the nearest 0.1 mg in a 100 mL volumetric, recording the exact weight of DPPH. The DPPH was dissolved in methanol and methanol was added to bring the volume to the 100 mL mark. The solution was sonicated to facilitate dissolution. The beers to be measured were opened and 12 mL of each was poured into separate 15 mL centrifuge tubes, making sure that the volumes in all tubes were equal. The analyses were done in triplicate for each beer. An extra beer sample served as a spectrophotometer blank. The beer was degassed by centrifuging it for 15 min at 6,000 rpm. Into each of two 25 mL flasks was pipeted 5 mL of the pH 4.5 water-ethanol buffer. The spectrophotometer wavelength was set to 531 nm and a buffered water blank was zeroed. 1.0 mL of DPPH solution was added to the water buffer, which was swirled at the same time a timer was started. Just before 10 minutes had elapsed, the sample was transferred to a cuvette and the absorbance (ABL) was measured. The analysis was duplicated with another buffer. For accuracy it is necessary that great care be taken to add exactly 1 mL reagent. It is also important to swirl (mix) the samples consistently as the assay is sensitive to oxygen and to the amount of reagent used. Degassed beer was used to obtain a baseline at 531 nm. After centrifugation 5 mL of the beer was transferred into the appropriate labeled 25 mL flask. 1.0 mL of DPPH solution was added, the solution was swirled and the timer was started. The Absorbance ([…]) of the beer sample was recorded. This process was repeated for all samples. To eliminate any possible prejudice in order of analysis, samples were analyzed randomly. The following formula was used to calculate the amount of DPPH which reacts with 5 mL of beer: μmol DPPH=((1-[…]/ABL)×(g DPPH/394))×10^6

[3] = Blind sensory triangle panels, model citrus beverage
Procedure: Carbon filtered water was carbonated to 3.5 to 4 times the volume of beer. 59.2 ml of syrup was added to each 355 ml bottle. Each bottle was individually dosed with the treatments listed in Table 22 by adding 1.775 mL of a 1% (weight/volume) solution of carnosol or rosmarinic acid in ethanol to give 50 ppm of each. The bottle was filled to approximately 355 ml with carbonated water before it was capped and inverted. Fresh samples were stored in the refrigerator (0° C.). Heat exposed samples were aged in the oven (32° C.) for seven days. […] Each panel was balanced, with half of the panel given control as the odd sample, the other half of the panel given a treated sample as the odd sample. Panelists were allowed to drink water during the panel.

[4] = Trained panel flavor evaluation, light beer, forced aging; conditions: 5 ppm, 6 days 32° C.; for preservation of fresh flavor (words): light beer
Procedure: Separate solution of pure rosmarinic acid, pure carnosol and pure carnosic acid were prepared in ethanol as previously.
The light beer used in this study was approximately one month old and was purchased at a local market. Bottle additions were done as in Example 1.
The bottles were placed in a heated room at 32±1° C. in the dark. After the allotted aging time, the bottles of beer were transferred to a dark refrigerator and stored at approximately 2° to 4° C. until they were analyzed. Additional bottles from the same code were kept unopened in 2° to 4° C. storage. These unopened samples from the same beer code were labeled “Fresh Control” used to provide fresh samples for the trained panel.
At the appropriate times, a trained 7-member panel evaluated the beers. […] Five beers were evaluated at the session—Fresh Control, Aged No Addition, and Aged containing each one of the Labiatae treatments. The overall preference rank, the character and intensity of the aroma, the levels of paper/cardboard aroma and flavor, sour or off flavors, hang and astringency and bitterness quality and intensity were evaluated.

[5] = 0 days at 40° C., + Air, 20 ppm (RA + CA: 10 ppm each)
[6] = 0 days at 40° C., no air, 20 ppm (CA + RA: 10 ppm each)
[7] = 3 days at 40° C., + Air, 20 ppm (RA + CA: 10 ppm each)
[8] = 3 days at 40° C., no air, 20 ppm (CA + RA: 10 ppm each)
[9] = 7 days at 40° C., + Air, 20 ppm (RA + CA: 10 ppm each)
[10] = 7 days at 40° C., no air, 20 ppm (CA + RA: 10 ppm each)
[11] = 14 days at 40° C., + Air, 20 ppm (RA + CA: 10 ppm each)
[12] = 14 days at 40° C., no air, 20 ppm (CA + RA: 10 ppm each)
[13] = 21 days at 40° C., + Air, 20 ppm (RA + CA: 10 ppm each)
[14] = 21 days at 40° C., no air, 20 ppm (CA + RA: 10 ppm each)
[15] = Aged Control vs. Aged treated (32° C., seven days), 50 ppm (CA + RA: 50 ppm each)
[16] = Fresh Control vs. Fresh treated, 50 ppm

SMILES	enhancing effect on redox potential of mash relative to RA ([1]; 20 ppm)	Redox [1]	DPPH Number [2, 5] [μmol DPPH]	DPPH Number [2, 6] [μmol DPPH]	DPPH Number [2, 7] [μmol DPPH]	DPPH Number [2, 8] [μmol DPPH]	DPPH Number [2, 9] [μmol DPPH]	DPPH Number [2, 10] [μmol DPPH]	DPPH Number [2, 11] [μmol DPPH]	DPPH Number [2, 12] [μmol DPPH]	DPPH Number [2, 13] [μmol DPPH]	DPPH Number [2, 14] [μmol DPPH]	effect on DPPH numbers [2]	effect on DPPH number [2]	Correct Panelists/Total Panelists (triangle test) [3, 15]	Correct Panelists/Total Panelists (triangle test) [3, 16]	panelists' preference for treated sample over Aged No Addition sample [4]	preservation of fresh flavor (words) [4]	Correct Panelists/Total Panelists (triangle test) ([3]; Fresh Control vs. Aged treated (32° C., seven days), 50 ppm (CA + RA: 50 ppm each))	difference from untreated samples detected by triangle panel ([3]; aged for 7 days)
CC(C)c1cc2c(c(O)c1O)[C@@]1(C(=O)O)CCCC(C)(C)[C@@H]1CC2 [CA, carnosic acid]	less by about half the effect seen with RA	17.3	53.3	52.2	67.2	69.8	55.6	64.7	61.7	64.4	56.5	60.5	Neither CA nor RA has much impact on DPPH numbers	preserves the DPPH number in beers that have been treated with air	9/21	9/20	7 of 7 panelists preferred	very significantly retards the rate of staling	–	–
O=C(/C=C/c1ccc(O)c(O)c1)O[C@H](Cc1ccc(O)c(O)c1)C(=O)O [RA, rosmarinic acid]	–	38.8	49.9	51.8	67.1	66.3	57.7	58.7	56.3	63.7	50.5	57.5	Neither CA nor RA has much impact on DPPH numbers	preserves the DPPH number in beers that have been treated with air	12/20	10/22	7 of 7 panelists preferred	very significantly retards the rate of staling	12/21	significant difference with a 95% confidence level
